In ChEMBL document CHEMBL1201862, “PubChem BioAssay data set” (2004):
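Interpolation was linear, between the two tested concentrations surrounding the appropriate level; five concentrations were tested over 48 hours in 96-well plates. GI50 is the concentration that inhibits growth by half.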 Activity calls are given as the source filed them. No stated cut-off is given here; in the data, active = GI50 up to about 1.1 µM and inactive = higher.

How the values were obtained:
Assay in all cases: NCI tumour cell line growth inhibition, 48 h
CCRF-CEM = system: CCRF-CEM
EKVX = system: EKVX
HOP-92 = system: HOP-92
K562 = system: K562
M14 = system: M14
MCF7 = system: MCF7
MDA-MB-231 = system: MDA-MB-231
MDA-N = system: MDA-N
NCI-H23 = system: NCI-H23
NCI-H460 = system: NCI-H460
OVCAR-5 = system: OVCAR-5
OVCAR-8 = system: OVCAR-8
SK-MEL-2 = system: SK-MEL-2
SK-OV-3 = system: SK-OV-3
SW-620 = system: SW-620
T47D = system: T47D
KM-20L2 = system: KM-20L2
LXFL 529 = system: LXFL 529
M19-MEL = system: M19-MEL

| Structure (SMILES) | GI50 (CCRF-CEM) | GI50 (EKVX) | GI50 (HOP-92) | GI50 (K562) | GI50 (M14) | GI50 (MCF7) | GI50 (MDA-MB-231) | GI50 (MDA-N) | GI50 (NCI-H23) | GI50 (NCI-H460) | GI50 (OVCAR-5) | GI50 (OVCAR-8) | GI50 (SK-MEL-2) | GI50 (SK-OV-3) | GI50 (SW-620) | GI50 (T47D) | GI50 (KM-20L2) | GI50 (LXFL 529) | GI50 (M19-MEL) |
| --- | --- | --- | --- | --- | --- | --- | --- | --- | --- | --- | --- | --- | --- | --- | --- | --- | --- | --- | --- |
| NS(=O)(=O)c1ccc(NC(=O)Nc2cccc3ccccc23)cc1 | > 100 µM (inactive) | 28.4 µM (inactive) | 35.6 µM (inactive) | > 100 µM (inactive) | 86.9 µM (inactive) | 31.2 µM (inactive) | 19.4 µM (inactive) | 54.8 µM (inactive) | 34.4 µM (inactive) | 40.8 µM (inactive) | > 100 µM (inactive) | 20.9 µM (inactive) | > 100 µM (inactive) | 42.8 µM (inactive) | 44.8 µM (inactive) | 33.5 µM (inactive) |  |  |  |
| O=C1NNC(=O)c2ccccc2SSc2ccccc2C(=O)NNC(=O)c2ccccc2SSc2ccccc21 | 1.26 µM (inactive) | 18.1 µM (inactive) | > 50 µM (inactive) | 12.9 µM (inactive) | 24.4 µM (inactive) | 6.05 µM (inactive) | 32.4 µM (inactive) | 32 µM (inactive) | 9.33 µM (inactive) | 5.97 µM (inactive) | 16.9 µM (inactive) | 12.5 µM (inactive) | 26.8 µM (inactive) | 23.3 µM (inactive) | 8.59 µM (inactive) | 28.8 µM (inactive) |  |  |  |
| O=C(O)c1nnsc1-c1csnn1 | > 100 µM (inactive) | > 100 µM (inactive) | > 100 µM (inactive) | > 100 µM (inactive) | > 100 µM (inactive) | > 100 µM (inactive) | > 100 µM (inactive) | > 100 µM (inactive) | > 100 µM (inactive) | > 100 µM (inactive) | > 100 µM (inactive) | > 100 µM (inactive) | > 100 µM (inactive) | > 100 µM (inactive) | > 100 µM (inactive) | > 100 µM (inactive) |  |  |  |
| COC1C(O)C(O[C@H]2CC[C@@]3(C)C(CC[C@@H]4[C@@H]3CC[C@]3(C)[C@@H](C(C)OC5OC(CO)C(O)C(O)C5O)CC[C@]43O)C2)OC(C)C1OC1OC(CO)C(O)C(O)C1O (stereo partly drawn) | > 100 µM (inactive) | > 100 µM (inactive) | > 100 µM (inactive) | > 100 µM (inactive) | > 100 µM (inactive) | > 100 µM (inactive) | > 100 µM (inactive) | > 100 µM (inactive) | > 100 µM (inactive) | > 100 µM (inactive) | > 100 µM (inactive) | > 100 µM (inactive) | > 100 µM (inactive) | > 100 µM (inactive) | > 100 µM (inactive) | > 100 µM (inactive) |  |  |  |
| Cc1cccc(NC2=NC(=O)C(CC(=O)Nc3ccc(Cl)cc3C)S2)c1 (stereo not drawn) | > 100 µM (inactive) | > 100 µM (inactive) |  | > 100 µM (inactive) | > 100 µM (inactive) |  |  |  | > 100 µM (inactive) | > 100 µM (inactive) | > 100 µM (inactive) | > 100 µM (inactive) | > 100 µM (inactive) | > 100 µM (inactive) | > 100 µM (inactive) |  | > 100 µM (inactive) | > 100 µM (inactive) | > 100 µM (inactive) |
| O=c1[nH]c(-c2ccccc2)nc2c1sc1nc3ccccc3n12 | > 100 µM (inactive) | > 100 µM (inactive) | > 100 µM (inactive) | > 100 µM (inactive) | > 100 µM (inactive) | > 100 µM (inactive) | > 100 µM (inactive) | > 100 µM (inactive) | > 100 µM (inactive) | > 100 µM (inactive) | > 100 µM (inactive) | > 100 µM (inactive) | > 100 µM (inactive) | > 100 µM (inactive) | > 100 µM (inactive) | > 100 µM (inactive) |  |  |  |
| CCOC(=O)c1sc2ncnc(N)c2c1C | 62.1 µM (inactive) | 25.9 µM (inactive) | 8.99 µM (inactive) | > 100 µM (inactive) | 65 µM (inactive) | 51.6 µM (inactive) | > 100 µM (inactive) | 41.8 µM (inactive) | 70.3 µM (inactive) | > 100 µM (inactive) | 36.3 µM (inactive) | 35 µM (inactive) | > 100 µM (inactive) | > 100 µM (inactive) | > 100 µM (inactive) | 24.2 µM (inactive) |  |  |  |
| COc1ccc([C@@H]2C[C@@H]3C(=O)OC(=O)[C@@H]3c3c2c2ccccc2n3C)cc1 | > 100 µM (inactive) | > 100 µM (inactive) | > 100 µM (inactive) | > 100 µM (inactive) | > 100 µM (inactive) |  |  |  | > 100 µM (inactive) |  |  | > 100 µM (inactive) | > 100 µM (inactive) | > 100 µM (inactive) | > 100 µM (inactive) |  |  | > 100 µM (inactive) | > 100 µM (inactive) |
| CC[N+](CC)(CC)Cc1cn(S(=O)(=O)c2ccccc2)c2ccccc12 | > 100 µM (inactive) |  | > 100 µM (inactive) | > 100 µM (inactive) | > 100 µM (inactive) |  |  |  | > 100 µM (inactive) | > 100 µM (inactive) | > 100 µM (inactive) | > 100 µM (inactive) | > 100 µM (inactive) |  | > 100 µM (inactive) |  | > 100 µM (inactive) |  | > 100 µM (inactive) |
| CCCCCC1=C/C(=C\c2[nH]c(-c3ccc[nH]3)cc2OC)N=C1C | < 0.01 µM (active) | 0.0145 µM (active) | < 0.01 µM (active) | < 0.01 µM (active) | < 0.01 µM (active) | 0.0136 µM (active) | < 0.01 µM (active) | < 0.01 µM (active) | 0.0128 µM (active) | 0.0124 µM (active) | 0.0179 µM (active) | < 0.01 µM (active) | < 0.01 µM (active) | 0.25 µM (active) | < 0.01 µM (active) | 0.0189 µM (active) |  |  |  |
| N#C[BH2-][n+]1ccc(C(=O)NNCc2cccc(C(F)(F)F)c2)cc1 | 28.4 µM (inactive) | 27.3 µM (inactive) | 14.9 µM (inactive) | 20.5 µM (inactive) | 8.75 µM (inactive) | 5.64 µM (inactive) | 10.4 µM (inactive) | 10.2 µM (inactive) | 12.2 µM (inactive) | 20 µM (inactive) | 21.2 µM (inactive) | 3.98 µM (inactive) | 12.1 µM (inactive) | 8.93 µM (inactive) | 25.5 µM (inactive) | 20 µM (inactive) |  |  |  |
| CCCNC1=C2CC(C)CC(OC)[C@@H](O)[C@H](C)/C=C(\C)C(OC(N)=O)C(OC)/C=C\C=C(/C)C(=O)NC(=CC1=O)C2=O (stereo partly drawn) | 0.273 µM (active) | 3.36 µM (inactive) | 0.124 µM (active) | 0.141 µM (active) | 0.561 µM (active) | 0.124 µM (active) | 0.318 µM (active) | 0.118 µM (active) | 0.0847 µM (active) | 0.0685 µM (active) | 0.0311 µM (active) | 0.337 µM (active) | 0.129 µM (active) | 0.101 µM (active) | 0.0379 µM (active) | 0.476 µM (active) |  |  |  |
| Clc1ccc(COC(Cn2ccnc2)c2ccc(Cl)cc2Cl)c(Cl)c1 (stereo not drawn) [MICONAZOLE] | 8.09 µM (inactive) | 14.3 µM (inactive) | 11.4 µM (inactive) | 3.66 µM (inactive) | 12.6 µM (inactive) | 10.9 µM (inactive) | 12.6 µM (inactive) | 4.8 µM (inactive) | 11 µM (inactive) | 17.5 µM (inactive) | 17.7 µM (inactive) | 13.9 µM (inactive) | 16.2 µM (inactive) | 14.3 µM (inactive) | 12.1 µM (inactive) | 7.89 µM (inactive) |  |  |  |
